Measurements from the supplement of paper PMC8671470.

How the values were obtained:
Details in all cases: 72 h
HL-60 [1] = assay: area under dose-response curve (viability, 1 nM-10 uM) (fraction (0-1)); higher = more sensitive
Outline: (§1)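 HL-60 cells grown in RPMI 1640 with 10% FBS were rescreened against the full library in 384-well plates, in duplicate, at five tenfold concentrations from 1 to 10,000 nM, alongside DMSO or 100 nM of one of three metabolic inhibitors for 72 h at 37 °C, 5% CO2. Reference wells contained DMSO or 10 μM proteasome inhibitor. Viability was read with CellTiter-Glo and normalised to these reference wells, and where reported, area under the curve was taken from four-parameter log-logistic fits in drc and PharmacoGx.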

KCL-22 [2] = system: KCL-22
Outline: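 Fifteen myeloid leukaemia lines in RPMI 1640 were treated for 72 h at 37 °C and 5% CO2 with five tenfold doses from 1 to 10,000 nM, in duplicate. ATP luminescence was normalised to vehicle and to a positive control at 10 µM, then fitted with a four-parameter log-logistic model. The IC50 came from these fits.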

K-562 = assay: cell viability (% survival relative to DMSO control, bortezomib = 0%); higher = less cytotoxic
Outline: (§2)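 Seeding density for each of the 10 AML and 5 CML cell lines was titrated to the linear growth range. Cells went into 384-well plates pre-printed in duplicate with compounds at 1, 10, 100, 1000 or 10000 nM and were held for 72 h at 37 °C with 5% CO2. CellTiter-Glo luminescence then provided the readout. Percent survival is expressed relative to vehicle at 100% and a 10 µM positive control at 0%, averaged over duplicates.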

HL-60 [3] = assay: as above
Outline: as §2

HEL = assay: as above
Outline: as §2

SHI-1 = assay: as above
Outline: as §2

THP-1 = assay: as above
Outline: as §2

BV-173 = assay: as above
Outline: as §2

KG-1 = assay: as above
Outline: as §2

KU-812 = assay: as above
Outline: as §2

MOLM-13 = assay: as above
Outline: as §2

MV4-11 = assay: as above
Outline: as §2

LAMA-84 = assay: as above
Outline: as §2

ML-2 = assay: as above
Outline: as §2

KCL-22 [4] = assay: as above
Outline: as §2

Mono-Mac-6 = assay: as above
Outline: as §2

NOMO-1 = assay: as above
Outline: as §2

HL-60 [5] = assay: cell viability (% survival relative to DMSO control); higher = less cytotoxic
Outline: as §1

O=C(c1c2ccccc2cc2ccccc12)N1CCC(N2CCC[C@@H](C(=O)N3CCOCC3)C2)CC1
Details | area under dose-response curve, co-treatment: AZD3965 100 nM | area under dose-response curve, co-treatment: DMSO vehicle | area under dose-response curve, co-treatment: GSK2194069 100 nM | area under dose-response curve, co-treatment: pictilisib 100 nM | cell viability, 1 nM [%] | cell viability, 10 nM [%] | cell viability, 100 nM [%] | cell viability, 1000 nM [%] | cell viability, 10000 nM [%]
BV-173 | – | – | – | – | 111 | 108 | 118 | 86.5 | 70.9
HEL | – | – | – | – | 106 | 108 | 110 | 77.3 | 94.7
HL-60 [1] | < 0.0301 | < 0.0301 | < 0.0301 | < 0.0301 | – | – | – | – | –
HL-60 [3] | – | – | – | – | 104 | 69.9 | 118 | 59.2 | 41.5
K-562 | – | – | – | – | 112 | 106 | 119 | 94.9 | 75.7
KCL-22 [4] | – | – | – | – | 107 | 108 | 118 | 99.6 | 78.3
KG-1 | – | – | – | – | 110 | 102 | 111 | 94 | 85.6
KU-812 | – | – | – | – | 100 | 108 | 103 | 95.3 | 96
LAMA-84 | – | – | – | – | 109 | 108 | 105 | 94.5 | 86.5
ML-2 | – | – | – | – | 126 | 118 | 119 | 98.5 | 86.4
MOLM-13 | – | – | – | – | 122 | 103 | 109 | 62.4 | 53.7
MV4-11 | – | – | – | – | 133 | 110 | 97.3 | 78.8 | 62.3
Mono-Mac-6 | – | – | – | – | 101 | 109 | 93.4 | 89.1 | 75.8
NOMO-1 | – | – | – | – | 106 | 108 | 104 | 99.6 | 95.2
SHI-1 | – | – | – | – | 110 | 96.3 | 107 | 101 | 90
THP-1 | – | – | – | – | 106 | 96.6 | 115 | 94.9 | 100

Details | IC50 (cell viability) [µM]
KCL-22 [2] | > 10

cell viability [%], HL-60 [5]
Details | 0.001 µM | 0.01 µM | 0.1 µM | 1 µM | 10 µM
co-treatment: AZD3965 100 nM | 93.6 | 96.9 | 102 | 101 | 83.4
co-treatment: DMSO vehicle | 103 | 100 | 105.5 | 101 | 94.5
co-treatment: GSK2194069 100 nM | 92.4 | 95.1 | 98.29 | 122 | 95.7
co-treatment: pictilisib 100 nM | 93.4 | 100 | 103 | 98.8 | 78.8

OCCN(CCO)c1nc(N2CCCCC2)c2nc(N(CCO)CCO)nc(N3CCCCC3)c2n1 [Dipyridamole]
Details | area under dose-response curve, co-treatment: AZD3965 100 nM | area under dose-response curve, co-treatment: DMSO vehicle | area under dose-response curve, co-treatment: pictilisib 100 nM | cell viability, 1 nM [%] | cell viability, 10 nM [%] | cell viability, 100 nM [%] | cell viability, 1000 nM [%] | cell viability, 10000 nM [%]
BV-173 | – | – | – | 90.4 | 98.2 | 92.4 | 78.6 | 38.8
HEL | – | – | – | 87.6 | 101 | 102 | 105 | 77.7
HL-60 [1] | < 0.0301 | < 0.0301 | < 0.0301 | – | – | – | – | –
HL-60 [3] | – | – | – | 129 | 65.2 | 105 | 61.6 | 93.8
K-562 | – | – | – | 108 | 89.5 | 105 | 85.6 | 67
KCL-22 [4] | – | – | – | 114 | 95.3 | 98.9 | 106 | 65
KG-1 | – | – | – | 94.7 | 112 | 101 | 104 | 90.2
KU-812 | – | – | – | 87.9 | 98.7 | 90.7 | 86.5 | 69.4
LAMA-84 | – | – | – | 97.9 | 99.6 | 108 | 90.3 | 83.7
ML-2 | – | – | – | 93.4 | 104 | 123 | 103 | 66.4
MOLM-13 | – | – | – | 116 | 117 | 97.5 | 83.5 | 97.8
MV4-11 | – | – | – | 95.8 | 95 | 101 | 94.4 | 43.5
Mono-Mac-6 | – | – | – | 98 | 103 | 98.5 | 97.1 | 77.4
NOMO-1 | – | – | – | 98 | 101 | 107 | 92.3 | 81.9
SHI-1 | – | – | – | 104 | 113 | 110 | 92.2 | 80.9
THP-1 | – | – | – | 96.6 | 100 | 107 | 90.8 | 81.5

Details | IC50 (cell viability) [µM]
KCL-22 [2] | > 10

cell viability [%], HL-60 [5]
Details | 0.001 µM | 0.01 µM | 0.1 µM | 1 µM | 10 µM
co-treatment: AZD3965 100 nM | 95.7 | 98.9 | 100.7 | 102 | 106
co-treatment: DMSO vehicle | 101 | 97.54 | 107 | 100 | 106
co-treatment: GSK2194069 100 nM | 94.2 | 94.44 | 106 | 82 | 64
co-treatment: pictilisib 100 nM | 90.6 | 101 | 105.3 | 99.7 | 97.4

C[C@H]1O[C@H](O[C@H]2[C@H](O)[C@@H](O)[C@@H](O[C@H]3[C@H](O)[C@@H](O)C(O)O[C@@H]3CO)O[C@@H]2CO)[C@H](O)[C@@H](O)[C@@H]1N[C@H]1C=C(CO)[C@@H](O)[C@H](O)[C@H]1O (mixture of isomers) [Acarbose]
Details | area under dose-response curve, co-treatment: AZD3965 100 nM | area under dose-response curve, co-treatment: DMSO vehicle | area under dose-response curve, co-treatment: GSK2194069 100 nM | area under dose-response curve, co-treatment: pictilisib 100 nM | cell viability, 1 nM [%] | cell viability, 10 nM [%] | cell viability, 100 nM [%] | cell viability, 1000 nM [%] | cell viability, 10000 nM [%]
BV-173 | – | – | – | – | 95.6 | 99.7 | 110 | 103 | 83.4
HEL | – | – | – | – | 117 | 111 | 114 | 88.8 | 98.8
HL-60 [1] | < 0.0301 | < 0.0301 | < 0.0301 | < 0.0301 | – | – | – | – | –
HL-60 [3] | – | – | – | – | 125 | 111 | 122 | 99.1 | 106
K-562 | – | – | – | – | 111 | 131 | 88.1 | 94.9 | 98.8
KCL-22 [4] | – | – | – | – | 116 | 117 | 112 | 86.5 | 97.2
KG-1 | – | – | – | – | 99.1 | 107 | 93.2 | 105 | 95.7
KU-812 | – | – | – | – | 91.8 | 94.5 | 107 | 114 | 93.9
LAMA-84 | – | – | – | – | 93.4 | 84.7 | 108 | 92.7 | 93.4
ML-2 | – | – | – | – | 104 | 102 | 103 | 94.8 | 95.8
MOLM-13 | – | – | – | – | 133 | 86.7 | 106 | 95.8 | 94.9
MV4-11 | – | – | – | – | 108 | 73 | 111 | 89.1 | 94.9
Mono-Mac-6 | – | – | – | – | 101 | 95.6 | 102 | 111 | 87
NOMO-1 | – | – | – | – | 98.1 | 97.7 | 103 | 96.1 | 88.4
SHI-1 | – | – | – | – | 116 | 120 | 99.8 | 104 | 97.7
THP-1 | – | – | – | – | 87.6 | 107 | 96.9 | 95.1 | 97.1

Details | IC50 (cell viability) [µM]
KCL-22 [2] | > 10

cell viability [%], HL-60 [5]
Details | 0.001 µM | 0.01 µM | 0.1 µM | 1 µM | 10 µM
co-treatment: AZD3965 100 nM | 112.2 | 96.77 | 99 | 99.3 | 88.1
co-treatment: DMSO vehicle | 100.2 | 98.3 | 102 | 104 | 97.771
co-treatment: GSK2194069 100 nM | 108.6 | 98.7 | 97.7 | 92.59 | 97.3
co-treatment: pictilisib 100 nM | 105 | 104 | 101 | 96.9 | 102.6
